The values that follow come from patent US20230322805A1, “NOVEL PYRIMIDODIAZEPINE DERIVATIVES OR USES THEREOF” (SPARK BIOPHARMA, INC., priority 2020, published 2023).

SMILES strings stand for the structures.

For assay [1], the system named is tau P301L. The experiment in a line: Level of aggregation-prone mutant protein after treatment. Type of assay: cell-based. The note with it: SB1617 treatment. The text has this:
(§1) Plasmids pRK5-EGFP-Tau (#46904) and pRK-EGFP-Tau P301 L (#46908) were purchased from Addgene. Plasmids pCMV-SOD1-EGFP and pCMV-SOD1 G93A-EGFP were provided by Seoul National University College of Medicine. Plasmids were transfected in HEK293T cells using Lipofectamine and Opti-MEM (Gibco) based on the manufacturer's instructions. Short interfering RNA duplex (siRNA duplex, BIONEER) for PDIA3 and DNAJC3 was used for PDIA3 and DNAJC3 knockdown experiments. siRNA oligonucleotides were transfected in HEK293 cells stably expressing BiFC-tau using Lipofectamine RNAiMAX (ThermoFisher Scientific) and Opti-MEM (Gibco) based on the manufacturer's instructions.
(§2) 5-6. From the results of Test Examples 5-1 to 5-5, it was hypothesized that if SB1617, a pyrimidiazepine derivative from this invention, regulates protein homeostasis, it will be able to effectively control the level of other proteins that tend to be folded and accumulated incorrectly under ER stress conditions. To confirm this, changes in the level of other aggregation-oriented proteins according to SB1617 treatment were confirmed.
(§3) Tau P301 L is found in FTD patients with Parkinson's disease and is known to accelerate tau aggregation and accumulation in the mouse brain. Htt-Q74 refers to a polyglutamine dilated mutation that causes Huntington's disease. The SOD1 (G93A) mutation level is one of the clinical characteristics of ALS patients.

Assay [2] has as its system SOD1 (G93A). The assay is described as above. It counts as cell-based. The note with it: SB1617 treatment.
Text: as §1, §2, §3

For assay [3], the system named is tau (Tau5, phospho S199, T231) in BiFC-tau Venus HEK293 cells. The experiment in a line: Immunoblot of total tau and phospho-tau in HEK293 BiFC-tau cells. It counts as cell-based, human. Here is the method: Cells were collected and lysed in modified radioimmunoprecipitation assay(RIPA) buffer 50 mM Tris-HCl, pH 7.8, […], 1% NP-40, 0.5% deoxycholate, 5 mM NaF, 2 mM Na3VO4, and 1× Protease Inhibitor Cocktail(Roche). The concentration of total protein in each lysate was then determined using a whole cell assay and Pierce BCA Protein Assay Kit (ThermoFisher Scientific). Centrifugation was performed at 200 g for 10 minutes at 4° C. for measurement. Equal amounts of each lysate were fractionated by PAGE, transferred to a PVDF membrane (Bio-Rad), and blocked with 2% bovine serum albumin (BSA, MP Biomedicals) in Tris Buffered Saline supplemented with Tween20 (TBST, Sigma) for 1 hour at room temperature.
Membranes were probed with protein-specific antibodies overnight at 4° C. The following day, membranes were washed three times in TBST and incubated with 2% BSA in TBST for 1 hour at room temperature with anti-rabbit or anti-mouse horseradish peroxidase secondary antibodies (Cell Signaling Technology). After washing, membranes were exposed to detection reagents (GE Healthcare) and quantified via chemiluminescence (Bio-Rad). […]

Assay [4] deals with autophagy-related genes regulated by ATF4 in SH-SY5Y cells. The experiment in a line: RT-qPCR of autophagy-related genes regulated by ATF4. Type of assay: cell-based, human. The note with it: 5 μM SB1617 with 1 μM thapsigargin, 8 hours, versus thapsigargin alone. Here is the method: To analyze the level of autophagy-related genes, SH-SY5Y cells were treated with 1 μM thapsigargin for 8 h in the presence or absence of 5 μM SB1617. Total RNA was extracted using the RNeasy kit (Qiagen) according to the manufacturer's instructions. RNA was quantified using NanoVue (GE Healthcare) and cDNA was prepared with AccuPower CycleScript RT PreMix dT20 (Bioneer) according to the manufacturer's instructions. Quantitative RT-polymerase chain reaction (qRT-PCR) experiments were performed using KAPA SYBR FAST ABI Prism qPCR Master Mix (KAPA Biosystems). Data were analyzed with the comparative Ct method and normalized to housekeeping genes.
5-3. ATF4 is a transcription factor, which rises during elF2a-phosphorylation and upregulates genes related to autophagy and oxidation/reduction control as a recovery mechanism during ER stress. To assure this, 5 μM SB1617 was treated in SH-SY5Y cells for 8 hours in the presence or absence of 1 μM thapsigargin, and then autophagy-related genes regulated by ATF4 were identified with RT-qPCR.

For assay [5], the system named is protein synthesis in SH-SY5Y cells. The experiment in a line: Protein synthesis labelling with furomycin in SH-SY5Y cells. It counts as cell-based, human. The note with it: 10 μM SB1617, with thapsigargin. The method, then: 5-1. […] To assure this, SH-SY5Y cells were treated with 10 μM SB1617 for directed time, and then the newly synthesized protein was labeled with 10 μg/mL furomycin for 10 minutes and visualized by anti-furomycin antibody staining.

With `CN(Cc1ccc(Cl)cc1)c1ncnc2c1[C@@H]1OC[C@H](CN2)N1S(=O)(=O)c1ccc([N+](=O)[O-])cc1` [Compound 117], the “mutation level of tau P301L” value in assay [1] is reported as “downregulated”. The “mutation level of SOD (G93A)” value in assay [2] is reported as “downregulated”. In addition, the total tau level entry in assay [3] (10 μM SB1617, 200 nM TG, pre-treated with 20 μg/mL cycloheximide, 8 hours) is listed as “did not cause a significant change in tau level”. In assay [3] (SB1617 and TG with autophagy inhibitors 3-methyladenine and bafilomycin A1), the “effect on reduction of total tau level” value is listed as “is reduced, but does not completely diminish”. In assay [3] (with 80 nM thapsigargin for 20 hours), the “total tau (Tau5) and phospho-tau (S199, T231) levels” value is “decreased all tau levels”. Moreover, in assay [4], the “transcription level of autophagy-related genes regulated by ATF4” value is “increased the transcription level of autophagy-related genes”. Further, in assay [5], the “inhibition of protein synthesis” value was “enhanced and extended”.
